Where two headings read alike, the source gives them in different places. Square brackets hold non-standard residues; d marks the D form. Peptide text beside a SMILES is read from it. * marks the point of attachment. Lauroyl = CCCCCCCCCCCC(=O)*; Butyryl = CCCC(=O)*
Columns and labels:
[1] = test system: X. fastidiosa subsp. fastidiosa IVIA 5387.2; conditions: for log reduction of cell viability: 3 h, 50 μM
[2] = test system: X. fastidiosa subsp. fastidiosa IVIA 5387.2; type: cell-based, Xylella fastidiosa

| Molecule | Bactericidal activity: Reduction in viability (Log N0/N) [1] | Biofilm formation Level (antibiofilm activity) [2] | Biofilm formation Ratio (treatment/NTC) [2] | Planktonic cells Ratio (treatment/NTC) [2] | further results |
| --- | --- | --- | --- | --- | --- |
| CC[C@H](C)[C@H](NC(=O)[C@H](C)NC(=O)[C@H](Cc1c[nH]cn1)NC(=O)[C@@H]1CCCN1C(=O)[C@@H](NC(=O)[C@H](CC(C)C)NC(=O)[C@H](CO)NC(=O)[C@H](Cc1ccccc1)NC(=O)[C@H](CC(C)C)NC(=O)[C@@H](N)Cc1ccccc1)[C@@H](C)CC)C(=O)NCC(=O)NCC(=O)N[C@@H](CC(C)C)C(=O)N[C@H](C(=O)N[C@@H](CO)C(=O)N[C@@H](C)C(=O)N[C@@H](Cc1ccccc1)C(=O)N[C@@H](CCCCN)C(N)=O)[C@@H](C)CC [AamAP1] | 1.38 ± 0.12 Log N0/N |  |  |  | Hemolysis (horse erythrocytes; 150 µM): 100.00 ± 1.3%; Hemolysis (horse erythrocytes; 250 µM): 100.0 ± 4.1%; Hemolysis (horse erythrocytes; 375 µM): 100.0 ± 4.4%; Effect on X. fastidiosa growth in the antibiofilm test [2]: affected X. fastidiosa’s growth |
| CC[C@H](C)[C@H](NC(=O)[C@H](C)NC(=O)[C@H](CCCNC(=N)N)NC(=O)[C@@H]1CCCN1C(=O)[C@@H](NC(=O)[C@H](CC(C)C)NC(=O)[C@H](CO)NC(=O)[C@H](Cc1ccccc1)NC(=O)[C@H](CC(C)C)NC(=O)[C@@H](N)Cc1ccccc1)[C@@H](C)CC)C(=O)NCC(=O)NCC(=O)N[C@@H](CC(C)C)C(=O)N[C@H](C(=O)N[C@@H](CO)C(=O)N[C@@H](C)C(=O)N[C@@H](Cc1ccccc1)C(=O)N[C@@H](CCCCN)C(N)=O)[C@@H](C)CC [AamAP-R] | 0.78 ± 0.01 Log N0/N |  |  |  | Effect on X. fastidiosa growth in the antibiofilm test [2]: affected X. fastidiosa’s growth |
| CC[C@H](C)[C@H](NC(=O)[C@H](C)NC(=O)[C@H](CCCCN)NC(=O)[C@@H]1CCCN1C(=O)[C@@H](NC(=O)[C@H](CC(C)C)NC(=O)[C@H](CO)NC(=O)[C@H](Cc1ccccc1)NC(=O)[C@H](CC(C)C)NC(=O)[C@@H](N)Cc1ccccc1)[C@@H](C)CC)C(=O)NCC(=O)NCC(=O)N[C@@H](CC(C)C)C(=O)N[C@H](C(=O)N[C@@H](CO)C(=O)N[C@@H](C)C(=O)N[C@@H](Cc1ccccc1)C(=O)N[C@@H](CCCCN)C(N)=O)[C@@H](C)CC [AamAP-S1] | 2.45 ± 0.09 Log N0/N |  |  |  | log reduction of cell viability [1]: 2-3 log; Effect on X. fastidiosa growth in the antibiofilm test [2]: affected X. fastidiosa’s growth |
| CCCC(=O)N[C@H](C(=O)N[C@@H](CC(C)C)C(=O)N1CCC[C@H]1C(=O)N[C@H](Cc1ccccc1)C(=O)N[C@@H](CCCCN)C(=O)N[C@H](Cc1ccccc1)C(=O)N1CCC[C@H]1C(=O)N[C@H](Cc1ccccc1)C(=O)N[C@H](Cc1ccccc1)C(=O)N1CCC[C@H]1C(=O)N[C@H](Cc1ccccc1)C(=O)N[C@@H](CCCNC(=N)N)C(=O)N[C@@H](CCCNC(=N)N)C(N)=O)[C@@H](C)CC [BP526] (Butyryl-ILP[dF]K[dF]P[dF][dF]P[dF]RR-NH2) |  |  |  |  | Bactericidal activity: Reduction in viability (Log N0/N) ([1]; 50 µM): 0.56 ± 0.03 Log N0/N; Hemolysis (horse erythrocytes; 150 µM): 8.3 ± 0.7%; Hemolysis (horse erythrocytes; 250 µM): 20.4 ± 0.7%; Hemolysis (horse erythrocytes; 375 µM): 46.8 ± 3.3%; Biofilm formation Level (antibiofilm activity) ([2]; 50 µM): High (key: High: high antibiofilm activity (ratio of biofilm formation from 0.01 to 0.2); Moderate: moderate activity (ratio from 0.29 to 0.47); Low: low activity (ratio from 0.72 to 0.77)); Biofilm formation Ratio (treatment/NTC) ([2]; 50 µM): 0.17 ± 0.02; Planktonic cells Ratio (treatment/NTC) ([2]; 50 µM): 2.17 ± 0.02 |
| CCCCCCCCCCCC(=O)N[C@H](C(=O)N[C@@H](CC(C)C)C(=O)N1CCC[C@H]1C(=O)N[C@H](Cc1ccccc1)C(=O)N[C@@H](CCCCN)C(=O)N[C@H](Cc1ccccc1)C(=O)N1CCC[C@H]1C(=O)N[C@H](Cc1ccccc1)C(=O)N[C@H](Cc1ccccc1)C(=O)N1CCC[C@H]1C(=O)N[C@H](Cc1ccccc1)C(=O)N[C@@H](CCCNC(=N)N)C(=O)N[C@@H](CCCNC(=N)N)C(N)=O)[C@@H](C)CC [BP528] (Lauroyl-ILP[dF]K[dF]P[dF][dF]P[dF]RR-NH2) |  |  |  |  | Bactericidal activity: Reduction in viability (Log N0/N) ([1]; 50 µM): 0.61 ± 0.12 Log N0/N; Hemolysis (horse erythrocytes; 150 µM): 92.1 ± 5.7%; Hemolysis (horse erythrocytes; 250 µM): 96.6 ± 3.1%; Hemolysis (horse erythrocytes; 375 µM): 99.1 ± 8.0%; Biofilm formation Level (antibiofilm activity) ([2]; 50 µM): High (key: High: high antibiofilm activity (ratio of biofilm formation from 0.01 to 0.2); Moderate: moderate activity (ratio from 0.29 to 0.47); Low: low activity (ratio from 0.72 to 0.77)); Biofilm formation Ratio (treatment/NTC) ([2]; 50 µM): 0.03 ± 0.01; Planktonic cells Ratio (treatment/NTC) ([2]; 50 µM): 0.99 ± 0.06 |
| CC[C@H](C)[C@H](NC(=O)CN)C(=O)NCC(=O)N[C@@H](CCCCN)C(=O)N[C@@H](Cc1ccccc1)C(=O)N[C@@H](CC(C)C)C(=O)N[C@@H](Cc1c[nH]cn1)C(=O)N[C@@H](CO)C(=O)N[C@@H](C)C(=O)N[C@@H](CCCCN)C(N)=O [Magainin 2(1-10)] (H-GIGKFLHSAK-NH2) | 0.00 ± 0.06 Log N0/N | Low (key: High: high antibiofilm activity (ratio of biofilm formation from 0.01 to 0.2); Moderate: moderate activity (ratio from 0.29 to 0.47); Low: low activity (ratio from 0.72 to 0.77)) | 0.77 ± 0.02 | 1.67 ± 0.07 |  |
| CC[C@H](C)[C@H](NC(=O)[C@H](CCCNC(=N)N)NC(=O)[C@H](Cc1ccccc1)NC(=O)[C@H](CCC(N)=O)NC(=O)[C@@H](N)CCCCN)C(=O)N[C@@H](CCCNC(=N)N)C(=O)N[C@H](C(=O)N[C@@H](CCCNC(=N)N)C(=O)N[C@H](C(N)=O)C(C)C)C(C)C [Peptide 1029] (H-KQFRIRVRV-NH2) | 1.18 ± 0.08 Log N0/N | High (key: High: high antibiofilm activity (ratio of biofilm formation from 0.01 to 0.2); Moderate: moderate activity (ratio from 0.29 to 0.47); Low: low activity (ratio from 0.72 to 0.77)) | 0.20 ± 0.01 | 1.71 ± 0.04 |  |
| CC[C@H](C)[C@H](NC(=O)[C@H](CCCNC(=N)N)NC(=O)[C@H](Cc1ccccc1)NC(=O)[C@H](CCC(N)=O)NC(=O)[C@@H](N)C(C)C)C(=O)N[C@@H](CCCNC(=N)N)C(=O)N[C@H](C(=O)N[C@@H](CCCNC(=N)N)C(=O)N[C@H](C(=O)N[C@H](C(=O)N[C@H](C(=O)N[C@@H](CCCNC(=N)N)C(=O)N[C@@H](CCCCN)C(N)=O)[C@@H](C)CC)C(C)C)[C@@H](C)CC)C(C)C [Peptide 1036] (H-VQFRIRVRIVIRK-NH2) |  | High (key: High: high antibiofilm activity (ratio of biofilm formation from 0.01 to 0.2); Moderate: moderate activity (ratio from 0.29 to 0.47); Low: low activity (ratio from 0.72 to 0.77)) |  | 2.16 ± 0.06 | log reduction [1]: 3.48 log |
| CC[C@@H](C)[C@@H](NC(=O)[C@H](N)CCCNC(=N)N)C(=O)N[C@@H](C(=O)N[C@H](Cc1c[nH]c2ccccc12)C(=O)N[C@@H](C(=O)N[C@H](CCCNC(=N)N)C(=O)N[C@@H](C(=O)N[C@H](CCCNC(=N)N)C(=O)N[C@H](CCCNC(=N)N)C(=O)N[C@H](Cc1c[nH]c2ccccc12)C(=O)N[C@H](Cc1ccccc1)C(=O)N[C@@H](C(N)=O)C(C)C)[C@H](C)CC)C(C)C)C(C)C [RIJK2] (H-[dR][dI][dV][dW][dV][dR][dI][dR][dR][dW][dF][dV]-NH2) |  | High (key: High: high antibiofilm activity (ratio of biofilm formation from 0.01 to 0.2); Moderate: moderate activity (ratio from 0.29 to 0.47); Low: low activity (ratio from 0.72 to 0.77)) |  | 1.43 ± 0.09 |  |
| CC[C@H](C)[C@H](NC(=O)[C@H](Cc1c[nH]c2ccccc12)NC(=O)[C@H](CCCCN)NC(=O)[C@H](CCCCN)NC(=O)[C@@H](NC(=O)[C@H](CCCNC(=N)N)NC(=O)[C@H](CCCNC(=N)N)NC(=O)[C@@H](NC(=O)[C@@H](N)Cc1c[nH]c2ccccc12)[C@@H](C)CC)[C@@H](C)CC)C(=O)N[C@@H](CCCNC(=N)N)C(=O)N[C@@H](CCCNC(=N)N)C(=O)N[C@H](C(=O)N[C@@H](Cc1c[nH]cn1)C(=O)N[C@@H](CCCCN)C(N)=O)C(C)C [RR2-NH2] (H-WIRRIKKWIRRVHK-NH2) | 1.43 ± 0.12 Log N0/N | High (key: High: high antibiofilm activity (ratio of biofilm formation from 0.01 to 0.2); Moderate: moderate activity (ratio from 0.29 to 0.47); Low: low activity (ratio from 0.72 to 0.77)) | 0.13 ± 0.01 | 2.13 ± 0.07 |  |
| CC[C@H](C)[C@H](NC(=O)[C@H](CCCNC(=N)N)NC(=O)[C@H](CCCNC(=N)N)NC(=O)[C@H](CC(C)C)NC(=O)[C@@H](N)Cc1c[nH]c2ccccc12)C(=O)N[C@@H](CCCCN)C(=O)N[C@@H](C)C(=O)N[C@@H](Cc1c[nH]c2ccccc12)C(=O)N[C@@H](CC(C)C)C(=O)N[C@@H](CCCNC(=N)N)C(=O)N[C@@H](CCCNC(=N)N)C(=O)N[C@@H](CCCCN)C(=O)N[C@@H](CCCNC(=N)N)C(=O)N[C@@H](CCCCN)C(N)=O [RR3-NH2] (H-WLRRIKAWLRRKRK-NH2) | 0.89 ± 0.09 Log N0/N | Moderate (key: High: high antibiofilm activity (ratio of biofilm formation from 0.01 to 0.2); Moderate: moderate activity (ratio from 0.29 to 0.47); Low: low activity (ratio from 0.72 to 0.77)) | 0.29 ± 0.01 | 1.66 ± 0.09 |  |
| CC[C@H](C)[C@H](NC(=O)[C@H](CCCNC(=N)N)NC(=O)[C@H](CCCNC(=N)N)NC(=O)[C@H](CC(C)C)NC(=O)[C@H](Cc1c[nH]c2ccccc12)NC(=O)[C@H](C)NC(=O)[C@H](CCCCN)NC(=O)[C@@H](NC(=O)[C@H](CCCNC(=N)N)NC(=O)[C@H](CCCNC(=N)N)NC(=O)[C@H](CC(C)C)NC(=O)[C@@H](N)Cc1c[nH]c2ccccc12)[C@@H](C)CC)C(=O)N[C@@H](CCCCN)C(=O)N[C@@H](C)C(N)=O [RR4-NH2] | 2.08 ± 0.09 Log N0/N | High (key: High: high antibiofilm activity (ratio of biofilm formation from 0.01 to 0.2); Moderate: moderate activity (ratio from 0.29 to 0.47); Low: low activity (ratio from 0.72 to 0.77)) | 0.20 ± 0.01 | 1.84 ± 0.05 | log reduction of cell viability [1]: 2-3 log |
| Cecropin B |  |  |  |  | Bactericidal activity: Reduction in viability (Log N0/N) ([1]; 3.1 µM): 2.13 ± 0.10 Log N0/N; Bactericidal activity: Reduction in viability (Log N0/N) ([1]; 12.5 μM): 3.19 ± 0.06 Log N0/N; log reduction ([1]; 12.5 μM): 3.19 log; Bactericidal activity: Reduction in viability (Log N0/N) ([1]; 50 µM): 4.00 ± 0.10 Log N0/N |
